One molecule from patent US20230210864A1, “AGENT FOR PROMOTING CORNEAL ENDOTHELIAL CELL ADHESION” (Senju Pharmaceutical Co., Ltd., priority 2007, published 2023) can be followed below.

In assay [1] the test system is rabbit corneal endothelial cells. In words: Culture of rabbit corneal endothelial cells with Y-27632, cells counted by MTS assay. It counts as cell-based. To be noted: primary culture, Y-27632 10 μM. The protocol: From a rabbit corneal tissue isolated immediately after euthanasia, Descemet's membrane with corneal endothelial cells attached thereto was separated. The Descemet's membrane was incubated together with Dispase II (1.2 U/ml, Roche Applied Science) under the conditions of 37° C., 5% CO2 for 45 min, and the corneal endothelial cells were mechanically separated by a pipetting operation. The separated corneal endothelial cells were centrifuged, the cells of a ROCK inhibitor(+) group were stirred in a medium for corneal endothelium added with Y-27632 (10 μM) and the cells of a ROCK inhibitor(−) group were stirred in a medium for corneal endothelium without addition of Y-27632, to the same concentration, and the cells were seeded on a 96 well plate at a density of about 2000 cells per well. As a medium for corneal endothelium, a culture medium (DMEM, Gibco Invitrogen) added with 1% fetal bovine serum and […] bFGF (Gibco Invitrogen) was used. The plate was pre-treated with an FNC coating mix (Athena ES) for 10 min. […] From day 1 to day 3 after the start of the culture, the cells were counted every 24 hr by MTS ([3-(4,5-dimethylthiazol-2-yl)-5-(3-carboxymethoxyphenyl)-2-(4-sulfophenyl)-2H-tetrazolium]) assay using CellTiter 96 (registered trade mark) AQueous One Solution Cell Proliferation (Promega) (FIG. 2).
(In general: Tetrazolium dyes change colour on reduction, which living cells bring about.)

Assay [2] deals with human corneal endothelial cells. In words: Primary culture of human corneal endothelial cells with Y-27632, phase contrast observation. As to conditions: Y-27632 10 μM. It counts as cell-based. Here is the method:
Of human corneal tissues obtained from the US eye bank, the central part (diameter 7 mm) had been used for corneal transplantation and the remaining surrounding corneal tissue was used. The Descemet's membrane with corneal endothelial cells adhered thereto was separated. For the ROCK inhibitor(+) group, the Descemet's membrane was placed in a medium for corneal endothelium added with Y-27632 (10 μM) and incubated under the conditions of 37° C., 5% CO2 for 10 min. For the ROCK inhibitor(−) group, the membrane was placed in a medium for corneal endothelium without addition of Y-27632 and incubated for 10 min under the same conditions. As the medium for corneal endothelium, the same culture medium as in Example 1 was used. The Descemet's membrane after the incubation was incubated together with Dispase II (1.2 U/ml, Roche Applied Science) under the conditions of 37° C., 5% CO2 for 45 min, and the corneal endothelial cells were mechanically separated by a pipetting operation. The separated corneal endothelial cells were centrifuged and stirred in the media for corneal endothelium with Y-27632(+) and Y-27632(−) to the same concentration, and the cells were seeded on a 48 well plate pre-treated with an FNC coating mix (Athena ES) at a density of about 10000 cells per well. […]

For assay [3], the system named is monkey corneal endothelial cells. In words: Primary culture of monkey corneal endothelial cells, toluidine blue staining, total area of cultured cells (Image J). To be noted: Y-27632 10 μM, day 10. It counts as cell-based, Macaca fascicularis. Here is the method: From the corneal tissue isolated from Macaca fascicularis euthanized, Descemet's membrane with corneal endothelial cells attached thereto was separated. In the same manner as in Example 2, for the ROCK inhibitor(+) group, the Descemet's membrane was placed in a medium for corneal endothelium added with Y-27632 (10 μM) and incubated under the conditions of 37° C., 5% CO2 for 10 min. For the ROCK inhibitor(−) group, the membrane was placed in a medium for corneal endothelium without addition of Y-27632 and incubated for 10 min under the same conditions. As the medium for corneal endothelium, the same cell culture medium as in Example 1 was used. The Descemet's membrane after the incubation was incubated together with Dispase II (1.2 U/ml, Roche Applied Science) under the conditions of 37° C., 5% CO2 for 45 min, and the corneal endothelial cells were mechanically separated by a pipetting operation. The separated corneal endothelial cells were centrifuged and stirred in the media for corneal endothelium with Y-27632(+) and Y-27632(−) to the same concentration, and the cells were seeded on a 96 well plate at a density of about 2000 cells per well. […] The total area of the cells was measured using Image J (National Institutes of Health) and analyzed (FIG. 6C).

The test system is the same in assay [4]. Description: Cell cycle of monkey corneal endothelial cells (anti-Ki67 antibody immunostaining and flow cytometry). To be noted: Y-27632 10 μM. It counts as cell-based, Macaca fascicularis. Here is the method: The Macaca fascicularis corneal endothelial cells passage-cultured in the same manner as in Example 6 were subcultured on a slide glass to a dilution of ¼. A medium for corneal endothelium added with Y-27632 (10 μM) was used for the ROCK inhibitor(+) group and a medium for corneal endothelium without addition of Y-27632 was used for the ROCK inhibitor(−) group. On days 1, 2 and 14 of the passage culture, the corneal endothelial cells on the slide glass were fixed with 4% para-formaldehyde at room temperature for 10 min, and immunostained with anti-Ki67 antibody (FIG. 11). Similarly, moreover, the Macaca fascicularis corneal endothelial cells were passage-cultured to a dilution of ¼ in each of the ROCK inhibitor(+) group and ROCK inhibitor(−) group. On days 1 and 2 of the passage culture, the cells were collected using 0.05% trypsin and subjected to flow cytometry using anti-Ki67 antibody, and the cell cycle was examined (FIGS. 12 and 13).
On the technique in general: Flow cytometry measures light scatter and fluorescence of single cells or particles in a stream.

Where [5] appears, read: days 1 and 2 of the passage culture.

As for `CC(N)[C@H]1CC[C@H](C(=O)Nc2ccncc2)CC1` (single isomer, unassigned; (+)) [Y-27632, (+)-trans-4-(1-aminoethyl)-1-(4-pyridylcarbamoyl)cyclohexane], the “cell adhesion in 24 hr (day 1) after cell seeding as compared to the ROCK inhibitor(−) group” value in assay [1] was “about 2.8 fold”. Besides, the “cell growth at day 3 when the cells reached confluent, difference from ROCK inhibitor(−) group” value in assay [1] (day 3) is given as “a significant difference was not found”. The “cell layer morphology and density on day 7 after the start of the culture” value in assay [2] is “a confluent and highly dense single cell layer consisting of cells (uniform polygonal cells) similar to normal corneal endothelial cells was formed”. Further, in assay [3], the “total area of cultured cells as compared to the ROCK inhibitor(−)” value was “about 1.6 fold”. The “number of Ki67 positive cells by immunostaining, compared to ROCK inhibitor(−) group” value in assay [4] (day 14, almost confluent) was “less than that of the ROCK inhibitor(−) group”. Moreover, in assay [4] (setting [5]), the “Ki67 positive cells by flow cytometry, compared to ROCK inhibitor(−) group” value is listed as “contained many Ki67 positive cells” and the “Ki67 positive cells by immunostaining, compared to ROCK inhibitor(−) group” value is “contained many Ki67 positive cells”.
